Legend:
Type in all cases: cell-based
22RV1 = test: IC50 assay by Western blot (APH-treated cells), 22RV1; details: 22RV1 cells; for IC50: Homo sapiens
Experimental: (§1) E. Treatment of Cells for IC50 Assay by Western Blot
(§2) The compound is stored as a 1 mM stock solution prepared in accordance with the Receipt of Compound SOP. The stock solution is diluted in cell media in two separate 1:10 dilution series.
(§3) 1. Arrange twelve 15-mL centrifuge tubes in a rack in two series and label them in accordance with Dilutions Series 1 and Dilution Series 2 shown in Table 1 and Table 2, respectively.
(§4) 2. Place 2.5 mL of prewarmed cell media in each of the […]. Place 2.25 mL of prewarmed cell media in the remaining tubes.
(§5) 3. Add 7.5 μL of 1 mM compound stock solution in the 3 μM tube. Mix well.
(§6) 4. Add 2.5 μL of 1 mM compound stock solution in the 1 μM tube. Mix well.
(§7) 5. For each series (separately), remove 250 μL from the leftmost tube and transfer to the next tube to the right. Repeat for each tube until the series is complete.
(§8) 6. Set aside the 1 μM tube, the 3 μM tube, and the 300 nM tube for discard.
(§9) 7. The cells to be treated will be in 6-well plates labeled by cell line. Remove the cells from the incubator and label the wells with the dosages to be administered.
(§10) 8. Arrange the dilution tubes in the rack in a manner that reflects the 6-well plate arrangement so as to avoid confusion when administering the dosage solutions to the appropriate wells.
(§11) 9. Aspirate the three wells in the top row of the first plate (labeled NT, APH+, and APH+) and replace with 2 mL fresh media (without drug compound).
(§12) 10. Aspirate the three wells in the bottom row of the first plate and replace each well with 2 mL of solution from the appropriate tube.
(§13) 11. Repeat step 10 for the next row of wells (top row second plate). and then for the final row of wells (bottom row second plate).
(§14) 12. Place both plates into the incubator for 30 minutes.
(§15) 13. After 30 minutes have elapsed, remove the plates from the incubator.
(§16) 14. Acquire stock solution of APH (5 mM) and add 2 μL of the APH stock solution to the center of each well except the well labeled NT.
(§17) 15. Swirl the plates carefully and gently to diffuse the APH throughout each well.
(§18) 16. Place the plates back in the incubator for 4 hours, at which point the cells will be harvested for analysis.
(§19) 17. Twenty minutes before harvesting (or 3 hours and 40 minutes after administration of APH), turn on a heat block suitable to heat Eppendorf tubes. Set the temperature to 95° C.
(§20) 18. Set up a number of Eppendorf tubes equal to the number of wells treated (i.e., twelve per two-plate drug administration), and label each tube with cell line, compound administered, dosage level, and date. Leave the tubes open.
(§21) 19. Add 200 mL DI water to a beaker.
(§22) 20. After 4 hours, remove treated plates from incubator.
(§23) 21. Aspirate media from all wells.
(§24) 22. Wash each well with 2 mL 1×PBS and aspirate.
(§25) 23. Sterilize vacuum line with 70% ethanol by spraying some into the nozzle while the vacuum is engaged. Shut off vacuum.
(§26) 24. Add Laemmli buffer to each well. For HCT116 Bcl/xl, OVCAR-3, and 22RV1 cells, add 300 μL per well; for OVCAR-8 and SKOV-3 cells, add 250 μL per well.
(§27) 25. Scrape the first well thoroughly. Place the scraper into the DI water between uses.
(§28) 26. Transfer the lysed cell debris mixture to the first tube carefully. The mixture will be viscous. Use a 1000-μL pipettor. Close the tube.
(§29) 27. Repeat steps 25 and 26 for each well.
(§30) 28. When all wells have been harvested, place all the tubes into the heat block. Place a weighted, heat-resistant object on top of the tubes to keep them closed.
(§31) 29. After 5 minutes, remove the tubes from the heat block and turn it off. Vortex each tube for 10 seconds. Be cautious of tubes popping open.
(§32) 30. Allow the tubes to come to room temperature and proceed to further analysis or store frozen at −20° C.

SKOV-3 = test: IC50 assay by Western blot (APH-treated cells), SKOV-3; details: SKOV-3 cells; for IC50: Homo sapiens, SK-OV-3
Experimental: as §1, §2, §3, §4, §5, §6, §7, §8, §9, §10, §11, §12, §13, §14, §15, §16, §17, §18, §19, §20, §21, §22, §23, §24, §25, §26, §27, §28, §29, §30, §31, §32

HCT116 Bcl/xl = test: IC50 assay by Western blot (APH-treated cells), HCT116 Bcl/xl; details: for IC50: Homo sapiens, HCT-116
Experimental: as §1, §2, §3, §4, §5, §6, §7, §8, §9, §10, §11, §12, §13, §14, §15, §16, §17, §18, §19, §20, §21, §22, §23, §24, §25, §26, §27, §28, §29, §30, §31, §32

OVCAR-3 = test: IC50 assay by Western blot (APH-treated cells), OVCAR-3; details: OVCAR-3 cells; for IC50: Homo sapiens
Experimental: as §1, §2, §3, §4, §5, §6, §7, §8, §9, §10, §11, §12, §13, §14, §15, §16, §17, §18, §19, §20, §21, §22, §23, §24, §25, §26, §27, §28, §29, §30, §31, §32

MEC (+APH) = test: MEC (+APH)
[1] = test system: HCT Bcl/xl, OVCAR-3, OVCAR-8, SKOV-3, 22RV1 cell lines; test: Ave. IC50 across cell lines; details: average across cell lines
OVCAR-8 = test: IC50 assay by Western blot (APH-treated cells), OVCAR-8; details: OVCAR-8 cells; for IC50: Homo sapiens
Experimental: as §1, §2, §3, §4, §5, §6, §7, §8, §9, §10, §11, §12, §13, §14, §15, §16, §17, §18, §19, §20, §21, §22, §23, §24, §25, §26, §27, §28, §29, §30, §31, §32

| Structure (SMILES) | PALD (Percent Activity at Lowest Dose tested) 22RV1 (22RV1) | IC50 (22RV1) [nM] | IC50 (SKOV-3) [nM] | PALD (Percent Activity at Lowest Dose tested) SKOV-3 (SKOV-3) | IC50 (HCT116 Bcl/xl) [nM] | PALD (Percent Activity at Lowest Dose tested) HCT Bcl/xl (HCT116 Bcl/xl) | IC50 (OVCAR-3) [nM] | PALD (Percent Activity at Lowest Dose tested) OVCAR-3 (OVCAR-3) | minimal effective concentration (MEC (+APH)) [µM] | IC50 [1] [nM] | IC50 (OVCAR-8) [nM] | PALD (Percent Activity at Lowest Dose tested) OVCAR-8 (OVCAR-8) |
| --- | --- | --- | --- | --- | --- | --- | --- | --- | --- | --- | --- | --- |
| CNCc1cccc2c1OCCCCCC[C@](C)(O)CC(C)(C)S(=O)(=O)c1ccc(cc1)-c1cnc(N)c(n1)C(=O)N2 (single isomer, unassigned) [Compound A-1] | (121%) | 4.69 | 2.85 | (81%) | 2.68 | (110%) | 4.09 | (116%) | 2e-05 | 3.29 | 2.16 | (91%) |
| CNCc1cccc2c1OCCCCCC[C@@](C)(O)CC(C)(C)S(=O)(=O)c1ccc(cc1)-c1cnc(N)c(n1)C(=O)N2 (single isomer, unassigned) [Compound A-2] | (107%) | 3.44 | 2.71 | (110%) | 2.29 | (91%) | 0.753 | (101%) | 2e-05 | 2.42 | 2.95 | (82%) |
| CNCc1cccc2c1OCCCCCC[C@](C)(O)CC1(CC1)S(=O)(=O)c1ccc(cc1)-c1cnc(N)c(n1)C(=O)N2 (single isomer, unassigned) [Compound B-1] | (98%) | 4.95 | 1.57 | (106%) | 4.61 | (93%) | 7.43 | (105%) | 4e-05 | 5.12 | 7.06 | (132%) |
| CNCc1cccc2c1OCCCCCC[C@@](C)(O)CC1(CC1)S(=O)(=O)c1ccc(cc1)-c1cnc(N)c(n1)C(=O)N2 (single isomer, unassigned) [Compound B-2] | (101%) | 1.89 | 0.97 | (115%) | 3 | (81%) | 3.12 | (94%) | 2e-05 | 2.32 | 2.62 | (115%) |
| CC1(C)C[C@](C)(O)CCCCCCOc2c(CN)cccc2NC(=O)c2nc(cnc2N)-c2ccc(cc2)S1(=O)=O (single isomer, unassigned) [Compound C-2] | (92%) | 2.03 | 3.2 | (95%) | 5.41 | (71%) | 11.5 | (95%) | 1e-05 | 4.92 | 2.47 | (100%) |
| C[C@@H]1COCCN1c1cc(C2([S@](C)(=N)=O)CC2)nc(-c2cc[nH]c3nccc2-3)n1 [AZD 6738, reference compound] | (165%) | 275 | 107 | (105%) | 57.1 |  | 91.8 | (190%) | 0.0003 | 123 | 86.6 | (116%) |
| CNCc1ccc(-c2cc(-c3nc(-c4ccc(S(=O)(=O)C(C)C)cc4)cnc3N)on2)cc1 [VE822, reference compound] | (86%) | 84.9 | 9.5 | (55%) | 62.1 | (105%) | 11.5 | (79%) | 0.0003 | 50 | 84.6 | (89%) |

Reference: US20250243220A1, “ATR INHIBITORS” (APREA THERAPEUTICS, INC., priority 2022, published 2025)
